Counter-ions that a name gives are not always drawn.

We go through twelve compounds from patent US20240150362A1, “Substituted Pyrrolotriazines” (Molecure S.A., priority 2022, published 2024).

In one test the target is T1, full-length USP7 (Homo sapiens, UniProt Q93009).
T1 construct: A 45 μl reaction volume containing full-length USP7 (0.5-1.0 nM)
T1 sequence (Q93009 whole entry): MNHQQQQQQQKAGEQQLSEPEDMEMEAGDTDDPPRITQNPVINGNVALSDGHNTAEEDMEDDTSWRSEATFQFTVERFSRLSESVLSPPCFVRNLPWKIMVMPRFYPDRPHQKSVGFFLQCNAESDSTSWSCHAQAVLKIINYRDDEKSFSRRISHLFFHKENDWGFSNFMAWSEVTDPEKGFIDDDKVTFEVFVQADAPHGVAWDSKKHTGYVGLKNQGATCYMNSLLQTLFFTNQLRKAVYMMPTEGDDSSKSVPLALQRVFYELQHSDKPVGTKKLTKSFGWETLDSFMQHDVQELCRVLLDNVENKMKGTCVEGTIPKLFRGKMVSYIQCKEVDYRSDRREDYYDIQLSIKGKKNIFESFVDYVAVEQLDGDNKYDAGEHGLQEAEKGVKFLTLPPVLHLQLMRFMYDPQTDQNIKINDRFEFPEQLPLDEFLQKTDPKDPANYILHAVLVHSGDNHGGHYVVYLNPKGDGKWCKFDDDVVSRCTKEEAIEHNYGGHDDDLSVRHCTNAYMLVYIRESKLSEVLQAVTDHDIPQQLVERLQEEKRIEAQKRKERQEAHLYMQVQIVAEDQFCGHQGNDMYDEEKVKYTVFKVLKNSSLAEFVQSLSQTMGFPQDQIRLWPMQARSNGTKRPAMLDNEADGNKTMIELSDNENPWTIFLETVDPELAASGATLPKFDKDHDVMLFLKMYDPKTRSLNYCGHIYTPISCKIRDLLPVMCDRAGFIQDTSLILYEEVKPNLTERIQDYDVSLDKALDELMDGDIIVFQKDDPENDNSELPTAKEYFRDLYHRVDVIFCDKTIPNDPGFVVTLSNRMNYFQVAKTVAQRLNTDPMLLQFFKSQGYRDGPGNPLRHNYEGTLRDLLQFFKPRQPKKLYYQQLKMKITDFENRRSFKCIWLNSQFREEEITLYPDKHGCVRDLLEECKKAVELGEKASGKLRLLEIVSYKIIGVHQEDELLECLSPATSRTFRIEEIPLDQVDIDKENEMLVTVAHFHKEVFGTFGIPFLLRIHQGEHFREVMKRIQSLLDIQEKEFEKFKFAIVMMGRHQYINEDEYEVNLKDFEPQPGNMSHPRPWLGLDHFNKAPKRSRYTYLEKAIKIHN
As to the kind of experiment: Enzymatic assay to determine % inhibition of USP7 activity at 1 μM test compound (Ubiquitin-Rhodamine 110 cleavage). Format: biochemical. To be noted: 1 μM of the test compound; given where IC50 has not been determined yet; mean of two repetitions. Here is the method:
Enzymatic Assay to Determine % Value of Inhibition […] Activity at 1 μM […]
A 45 μl reaction volume containing full-length USP7 (0.5-1.0 nM) in 50 mM HEPES pH 7.5, 150 mM NaCl, 2 mM DTT, 1 mg/ml BSA and 0.05% Tween20 (DUB assay buffer) was assembled in wells of 96 well half area black flat bottom plates. All test compounds were first dissolved to 30 mM stocks in DMSO and subsequently introduced to enzyme 15 min after USP7 incubation with DTT at room temperature. The final concentration of tested compounds was 1 μM. The enzymatic reaction was started by adding 0.5 μM Ubiquitin-Rhodamine 110 (final concentration) and allowed to proceed for 30-60 min at 25° C., 250 RPM shaking before Rhodamine fluorescence (485 nm excitation/535 nm emission) was measured using Tecan Spark M10 plate reader. Percentage of inhibition at 1 μM was determined by the mean of two repetitions for these concentrations using Microsoft Excel software.
For orientation: inhibition means the drop in the measured response relative to a control, in per cent. High values mean strong suppression, low ones little suppression. On to `CN1CCOC(Cc2c(F)cc(Cl)cc2-c2ncnn3cc(Cn4c(=O)ccn(C)c4=O)cc23)C1` (racemic) [Example 103, 3-((4-(5-chloro-3-fluoro-2-((4-methylmorpholin-2-yl)methyl)phenyl)pyrrolo[2,1-f][1,2,4]triazin-6-yl)methyl)-1-methylpyrimidine-2,4(1H,3H)-dione hydrochloride], for which the inhibition at 1 µM was in the range of 20 to 49%. `O=C1CN2CCC[C@H]2C(=O)N1Cc1cc2c(-c3cc(Cl)cc4ccn(C[C@@H]5CNCCO5)c34)ncnn2c1` (single isomer, unassigned) [Example 31, dihydrochloride]: the inhibition at 1 µM was in the range of 50 to 70%. `Cc1cc(Cl)cc(-c2ncnn3cc(CN4C(=O)C5C(C4=O)C5(C)C)cc23)c1CC1CNCC(CF)O1` (single isomer, unassigned) [Example 43, 3-((4-(5-chloro-2-((6-(fluoromethyl)morpholin-2-yl)methyl)-3-methylphenyl)pyrrolo[2,1-f][1,2,4]triazin-6-yl)methyl)-6,6-dimethyl-3-azabicyclo[3.1.0]hexane-2,4-dione hydrochloride] showed an inhibition at 1 µM of 20 to 49%.

In turn, `Cc1cc(Cl)cc(-c2ncnn3cc(CN4C(=O)C5C(C4=O)C5(C)C)cc23)c1OCC1(C)CCCNC1` (single isomer, unassigned) [Example 74, 3-((4-(5-chloro-3-methyl-2-((3-methylpiperidin-3-yl)methoxy)phenyl)pyrrolo[2,1-f][1,2,4]triazin-6-yl)methyl)-6,6-dimethyl-3-azabicyclo[3.1.0]hexane-2,4-dione hydrochloride] displayed an inhibition at 1 µM of 50 to 70%. In the case of `Cc1cc(Cl)cc(-c2ncnn3cc(Cn4cc(F)c(=O)n(C)c4=O)cc23)c1C[C@@H]1CNCCO1` (single isomer, unassigned) [Example 98, hydrochloride], the inhibition at 1 µM was below 20%. Regarding `Cc1cc(Cl)cc(-c2ncnn3cc(CN4C(=O)CN(C)C4=O)cc23)c1C[C@@H]1CNCCO1` (single isomer, unassigned) [Example 99, hydrochloride], the inhibition at 1 µM was above 70%. Regarding `Cc1cc(Cl)cc(-c2ncnn3cc(Cn4c(=O)ccn(C)c4=O)cc23)c1C[C@H]1CNCCO1` (single isomer, unassigned) [Example 100, hydrochloride], the inhibition at 1 µM was in the range of 20 to 49%.

`C[C@H]1CNCC(Cc2c(F)cc(Cl)cc2-c2ncnn3cc(CN4C(=O)CN(C)CC4=O)cc23)O1` (single isomer, unassigned) [Example 119, hydrochloride] yielded an inhibition at 1 µM of 20 to 49%.

Still in this test, the particulars now being: 1 μM of the test compound; given where IC50 has not been determined yet; mean of two repetitions; hydrochloride, 1 µM.
Turning to `Cc1cc(Cl)cc(-c2ncnn3cc(CN4C(=O)C5C(C4=O)C5(C)C)cc23)c1OC(C)C1CCNCC1.Cl` (single isomer, unassigned) [Example 56, 3-((4-(5-chloro-3-methyl-2-(1-(piperidin-4-yl)ethoxy)phenyl)pyrrolo[2,1-f][1,2,4]triazin-6-yl)methyl)-6,6-dimethyl-3-azabicyclo[3.1.0]hexane-2,4-dione hydrochloride], the USP7 % inhibition result was “B* (B*: 50-70% inhibition)”. With `Cc1cc(Cl)cc(-c2ncnn3cc(CN4C(=O)C5C(C4=O)C5(C)C)cc23)c1OC(C)C1CCNCC1.Cl` (single isomer, unassigned) [Example 57, 3-((4-(5-chloro-3-methyl-2-(1-(piperidin-4-yl)ethoxy)phenyl)pyrrolo[2,1-f][1,2,4]triazin-6-yl)methyl)-6,6-dimethyl-3-azabicyclo[3.1.0]hexane-2,4-dione hydrochloride], the USP7 % inhibition entry was “C* (C*: 20-49% inhibition)”.

On to `Cc1cc(Cl)cc(-c2ncnn3cc(CN4C(=O)C5C(C4=O)C5(C)C)cc23)c1OC(C)[C@@H]1CNCCO1.Cl` (single isomer, unassigned) [Example 76], for which the USP7 % inhibition result was “B* (B*: 50-70% inhibition)”.

Regarding `Cc1cc(Cl)cc(-c2ncnn3cc(CN4C(=O)C5C(C4=O)C5(C)C)cc23)c1OC(C)[C@@H]1CNCCO1.Cl` (single isomer, unassigned) [Example 77], the USP7 % inhibition entry is “D* (D*: <20% inhibition)”.
